These results are taken from US12351559B2 (Biohaven Therapeutics Ltd., priority 2014, dated 2025).

The test addresses T1, Kv7.2/7.3 (Homo sapiens, UniProt O43525+O43526).
T1 construct: host or cells: HEK cells, tetracycline-inducible expression
The test is described as follows: Kv7.2/7.3 activation assay, QPatch planar patch-clamp, single concentration screen. It is filed as cell-based. Set-up: key: <1.2-fold increase over baseline (−); +/−: as a range from <1.2-fold increase over baseline (−) up to >6-fold increase over baseline (+++); as a range from <1.2-fold increase over baseline (−) up to >6-fold increase over baseline (+++); as a range from <1.2-fold increase over baseline (−) up to >6-fold increase over baseline (+++); >6-fold increase over baseline (+++). As to conditions: Kv7.2/Kv7.3 co-expressing HEK cells, compound 3 μM, steady-state current at end of 2 s pulse to −30 mV. As to the method:
The ability of compounds to potentiate K-currents in Kv7.2/7.3 containing HEK cells was assessed using planar patch-clamp on the QPatch automated screening platform.
Cell Line: The hKv7.2/7.3 cell line was obtained from Chantest (Cleveland, OH 44128) cat. #CT6147. These HEK cells will express the Kv7.2/7.3 ion channels when induced.
Cell Culture: Cells were maintained in a media containing DMEM/F12; 50/50 (GIBCO cat. #11330), 10% Fetal Bovine Serum (FBS) (GIBCO cat. #26140), 100 units/mL Penicillin-Streptomycin (GIBCO cat. #15140), 0.005 mg/mL Blasticidin (INVIVOGEN cat. #ant-bl-1), 0.5 mg/mL Geneticin (GIBCO cat. #10131), 0.1 mg/ml Zeocin (GIBCO cat. #R25001). Cells used in the electrophysiology assay were maintained in a media without Blasticidin, Geneticin and Zeocin for 2 days and channel expression was induced by adding tetracycline (BIOLINE cat. #BIO-87030) at a final concentration of 1 mg/mL. Cells were grown in T-175 flask to ˜75% confluency. Currents were recorded 24 hours after channel induction.
Compound Plates: Test compounds were prepared by performing serial dilutions on a Biomek NX^P (BECKMAN COULTER). Final dilutions were made in external recording solution with a final DMSO concentration of 0.1% DMSO. For single concentration screens each plate had 10 μM retigabine as a positive control and 0.1% DMSO as a negative control.
Electrophysiology: On the day of the experiment cells were washed with Hank's Balanced Salt Solution (HBBS) (GIBCO cat. #14175) and harvested with Tryple (GIBCO cat. #12604). Cells were then centrifuged at 2000 rpm for 5 minutes and resuspended in CHO-S-SFM (GIBCO cat. #12052) at ˜3×10^6 cells/mL. Cells were stirred for 30 minutes before experiments were started. External recording solution contained (in mM): NaCl (145), KCl (4), CaCl2 (2), MgCl2 (1), HEPES (10) and Glucose (10); pH was adjusted to 7.4 with NaOH and the osmolarity was adjusted to 300-305 mOsM with sucrose if necessary. Internal solution contained (in mM): KCl (125), KF (10), EGTA (5), Na2ATP (5), MgCl2 (3.2), HEPES (5); pH was adjusted to 7.2 with KOH and the osmolarity was adjusted to 298-302 mOsM with sucrose.
Potassium channel activity was measured on the QPatch HTX (Sophion Bioscience) using QPlates with 48-wells/plate. Each cell was taken as an independent experiment and only one compound was tested per well. Potassium channel activity was elicited by holding at −80 mV and stepping to −30 mV for 2 s followed by a 100 ms pulse to −120 mV.
Single concentration screen: Baseline conditions were obtained by recording 5 sweeps in the external solution only, this was repeated for three applications of the external solution. […] The steady-state current at the end of the 2 s pulse to −30 mV was measured to determine the fold increase from baseline.
In general terms: The patch-clamp technique gives a direct electrical read-out from membranes.

Take `CC(C)(O)Cc1ccc2nc(NC(=O)[C@H]3CC3(C)C)n(-c3ccc(F)cc3)c2c1F` [Example 115, (S)-N-(7-fluoro-1-(4-fluorophenyl)-6-(2-hydroxy-2-methylpropyl)-1H-benzo[d]imidazol-2-yl)-2,2-dimethylcyclopropane-1-carboxamide]: the “Kv7.2/7.3 Activity: increase in current over baseline” value (“Kv7.2/7.3 Activity: increase” below) is “+”.

`C[C@@](O)(CC(=O)Nc1nc2ccc(Cl)cc2n1-c1ccc(F)cc1)c1ccccc1` [Example 108, (R)-N-(6-chloro-1-(4-fluorophenyl)-1H-benzo[d]imidazol-2-yl)-3-hydroxy-3-phenylbutanamide]: the “Kv7.2/7.3 Activity: increase” value is on record as “+/−”. The result for `CC(C(=O)Nc1nc2ccc(C#N)cc2n1C1CCC1)C(C)(C)C` (centres unmarked) [Example 77, N-(6-cyano-1-cyclobutyl-1H-benzo[d]imidazol-2-yl)-2,3,3-trimethylbutanamide] reads “+”; that for `CC(C)[C@H](C)C(=O)Nc1nc2ccc(C(F)(F)F)cc2n1C1CCC1` [Example 36, (S)-N-(1-cyclobutyl-6-(trifluoromethyl)-1H-benzo[d]imidazol-2-yl)-2,3-dimethylbutanamide], “+”. The result for `CC(C)(C)CC(=O)Nc1nc2ccc(C#N)cc2n1C1CCC1` [Example 5, N-(6-cyano-1-cyclobutyl-1H-benzo[d]imidazol-2-yl)-3,3-dimethylbutanamide] reads “+++ (>6-fold increase over baseline (+++))”; that for `O=C(Nc1nc2ccc(C(F)(F)F)cc2n1C1CCC1)C1CC(F)(F)C1` [Example 38, N-(1-cyclobutyl-6-(trifluoromethyl)-1H-benzo[d]imidazol-2-yl)-3,3-difluorocyclobutane-1-carboxamide], “+/−”; that for `CC(C)(C)CC(=O)Nc1nc2ccc(C(F)F)cc2n1C1CCC1` [Example 66, N-(1-cyclobutyl-6-(difluoromethyl)-1H-benzo[d]imidazol-2-yl)-3,3-dimethylbutanamide], “++”. The result for `CN(C)C(=O)Cc1ccc2nc(NC(=O)CC(C)(C)C)n(C3CCC3)c2c1F` [Example 118, N-(1-cyclobutyl-6-(2-(dimethylamino)-2-oxoethyl)-7-fluoro-1H-benzo[d]imidazol-2-yl)-3,3-dimethylbutanamide] reads “+”; that for `CC(C)(O)CC(=O)Nc1nc2ccc(C(F)(F)F)cc2n1-c1ccc(OC(F)(F)F)cc1` [Example 137, 3-hydroxy-3-methyl-N-(1-(4-(trifluoromethoxy)phenyl)-6-(trifluoromethyl)-1H-benzo[d]imidazol-2-yl)butanamide], “+”; that for `C[C@](O)(CC(=O)Nc1nc2ccc(C#N)cc2n1-c1ccc(F)cn1)c1ccccc1` [Example 79, (S)-N-(6-cyano-1-(5-fluoropyridin-2-yl)-1H-benzo[d]imidazol-2-yl)-3-hydroxy-3-phenylbutanamide], “+”.

For the compound `CC(C)c1ccc2nc(NC(=O)CC(C)(C)C)n(C3CCC3)c2c1` [Example 64, N-(1-cyclobutyl-6-isopropyl-1H-benzo[d]imidazol-2-yl)-3,3-dimethylbutanamide], the “Kv7.2/7.3 Activity: increase” value is “++”.

As for `CC(C)(C(=O)Nc1nc2ccc(C#N)cc2n1C1CCC1)C(O)c1ccccc1` (centres unmarked) [Example 72, N-(6-cyano-1-cyclobutyl-1H-benzo[d]imidazol-2-yl)-3-hydroxy-2,2-dimethyl-3-phenylpropanamide], the “Kv7.2/7.3 Activity: increase” value is on record as “+/−”.

As to `CC(C)(C)CC(=O)Nc1nc2ccccc2n1-c1ccccc1` [Example 2, 3,3-dimethyl-N-(1-phenyl-1H-benzo[d]imidazol-2-yl)butanamide], the “Kv7.2/7.3 Activity: increase” value is on record as “+”. `CCOC(=O)Cc1ccc2nc(NC(=O)[C@H]3CC3(C)C)n(C3CCC3)c2c1F` [Example 111, ethyl (S)-2-(1-cyclobutyl-2-(2,2-dimethylcyclopropane-1-carboxamido)-7-fluoro-1H-benzo[d]imidazol-6-yl)acetate]: the “Kv7.2/7.3 Activity: increase” value was “+”. The result for `CC(C)(C)CC(=O)Nc1nc2ccc(Br)cc2n1C1CCC1` [Example 63, N-(6-bromo-1-cyclobutyl-1H-benzo[d]imidazol-2-yl)-3,3-dimethylbutanamide] reads “++”. The result for `CC(C)(C)CC(=O)Nc1nc2ccc(Cl)cc2n1C1CCC1` [Example 60, N-(6-chloro-1-cyclobutyl-1H-benzo[d]imidazol-2-yl)-3,3-dimethylbutanamide] reads “+”; that for `CC1(n2c(NC(=O)C[C@](C)(O)c3ccccc3Cl)nc3ccc(C#N)cc32)CCC1` [Example 139, (S)-3-(2-chlorophenyl)-N-(6-cyano-1-(1-methylcyclobutyl)-1H-benzo[d]imidazol-2-yl)-3-hydroxybutanamide], “+”; that for `CC(C)(C)CC(=O)Nc1nc2cccc(CO)c2n1C1CCC1` [Example 68, N-(1-cyclobutyl-7-(hydroxymethyl)-1H-benzo[d]imidazol-2-yl)-3,3-dimethylbutanamide], “+”. The result for `CC(C)(O)CC(=O)Nc1nc2ccc(C(F)(F)F)cc2n1-c1ccc(F)c(F)c1` [Example 143, N-(1-(3,4-difluorophenyl)-6-(trifluoromethyl)-1H-benzo[d]imidazol-2-yl)-3-hydroxy-3-methylbutanamide] reads “++”; that for `CC(O)(CC(=O)Nc1nc2ccc(C#N)cc2n1C1CCC1)c1ccccc1` (centres unmarked) [Example 17, N-(6-cyano-1-cyclobutyl-1H-benzo[d]imidazol-2-yl)-3-hydroxy-3-phenylbutanamide], “++”. On to `CCC(O)(CC)c1ccc2nc(NC(=O)C3CC34CC4)n(C3CCC3)c2c1` (centres unmarked) [Example 106, N-(1-cyclobutyl-6-(3-hydroxypentan-3-yl)-1H-benzo[d]imidazol-2-yl)spiro[2.2]pentane-1-carboxamide], for which the “Kv7.2/7.3 Activity: increase” value is given as “+/−”. The result for `CC(C)[C@H](C)C(=O)Nc1nc2ccc(C#N)cc2n1-c1ccc(F)cc1` [Example 32, (S)-N-(6-cyano-1-(4-fluorophenyl)-1H-benzo[d]imidazol-2-yl)-2,3-dimethylbutanamide] reads “+”; that for `CC(C)(O)c1ccc2nc(NC(=O)C3CC34CCC4)n(C3CCC3)c2c1` (centres unmarked) [Example 101, N-(1-cyclobutyl-6-(2-hydroxypropan-2-yl)-1H-benzo[d]imidazol-2-yl)spiro[2.3]hexane-1-carboxamide], “+”. For the compound `O=C(CC1(O)CCC1)Nc1nc2ccc(C(F)(F)F)cc2n1-c1ccc(OC(F)(F)F)cc1` [Example 142, 2-(1-hydroxycyclobutyl)-N-(1-(4-(trifluoromethoxy)phenyl)-6-(trifluoromethyl)-1H-benzo[d]imidazol-2-yl)acetamide], the “Kv7.2/7.3 Activity: increase” value is recorded as “++”.

`C[C@](O)(CC(=O)Nc1nc2ccc(C#N)cc2n1C1CCC1)c1cccnc1` [Example 21, (S)-N-(6-cyano-1-cyclobutyl-1H-benzo[d]imidazol-2-yl)-3-hydroxy-3-(pyridin-3-yl)butanamide]: the “Kv7.2/7.3 Activity: increase” value was “+/−”. The result for `C[C@@H](C(=O)Nc1nc2ccc(C#N)cc2n1C1CCC1)C(C)(C)C` [Example 76, (R)-N-(6-cyano-1-cyclobutyl-1H-benzo[d]imidazol-2-yl)-2,3,3-trimethylbutanamide] reads “+”.
